Source: publication PMC12210912, “Pharmacologic properties and inhibitory activity of 6-azasteroids against Mycobacterium leprae in vivo and in vitro” (Microbiology Spectrum, 2025)

Assays:
[1] = in vivo pharmacokinetics in CD1 male mice; conditions: for bioavailability: male, CD1, mouse, oral, 5 mg/kg, read-out: F (bioavailability); for Cmax / Tmax / half-life: mouse
Experimental: Experiments were performed by Pharmaron, Inc. The metabolism and pharmacokinetics of the 6-azasteroids were studied in CD1 male mice approximately 8 weeks old and 20–30 g. […] Each group contained three mice. Blood samples were collected in anticoagulant tubes containing potassium ethylenediaminetetraacetic acid.
Four quality control samples (1, 2, 50, and 800 ng/mL) for plasma were prepared independently of those used for the calibration curves. These quality control samples were prepared on the day of analysis in the same way as the calibration standards. An aliquot (33 µL) of each standard, quality control sample, and unknown sample (30 µL of plasma combined with 3 µL of blank solution) was added to 200 µL of acetonitrile containing an internal standard mixture for precipitating protein. […] The supernatant was diluted three times with water. Diluted supernatant (5 µL) was quantitatively analyzed by LC-MS/MS (API 4000 Triple Quad—AB Sciex, Canada; LC-30A HPLC—Shimadzu, Japan). Non-compartmental pharmacokinetic analysis was performed with Phoenix WinNonlin software (ver. 6.1, Certara, US) using composite data.

LXRα = target: T1, LXRα (Homo sapiens, UniProt Q13133); assay: LXRα radioligand binding inhibition; conditions: [3H]T0901317 binding, recombinant protein; for % inhibition observed, LXRα: 10 µM; for inhibition at 10 µM: read-out: % inhibition observed, LXRα
T1 construct: Eurofins (assay provider); host or cells: E. coli
T1 sequence (Q13133 1-447): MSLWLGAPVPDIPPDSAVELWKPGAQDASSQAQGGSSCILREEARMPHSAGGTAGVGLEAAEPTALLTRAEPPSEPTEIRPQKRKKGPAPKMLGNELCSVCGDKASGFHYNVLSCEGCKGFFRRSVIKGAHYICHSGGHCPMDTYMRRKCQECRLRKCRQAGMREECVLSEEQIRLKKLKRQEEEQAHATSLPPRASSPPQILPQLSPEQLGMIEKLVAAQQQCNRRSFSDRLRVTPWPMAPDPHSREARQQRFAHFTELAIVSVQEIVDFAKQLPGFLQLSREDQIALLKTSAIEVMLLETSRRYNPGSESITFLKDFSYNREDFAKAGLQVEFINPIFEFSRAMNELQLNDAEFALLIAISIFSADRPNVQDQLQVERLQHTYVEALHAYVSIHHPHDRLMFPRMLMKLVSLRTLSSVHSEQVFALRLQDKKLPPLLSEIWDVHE
Experimental: Four nuclear receptors: glucocorticoid, androgen, LXRα, and LXRβ were assayed. Inhibition of agonist binding to each of the receptors was carried out following a standard protocol by Eurofins, Inc., USA. Compounds were tested at 10 µM. Compound binding was measured by scintillation counting and was calculated as a % inhibition of the binding of a radioactively labeled ligand specific for each target. Percent inhibition of control specific binding was expressed as
100−[(measured specific binding)/(control specific binding)∗100]
where measured specific binding is the amount of radioactive ligand binding obtained in the presence of test compounds.
(iii) LXRα (human) recombinant protein expressed in E. coli; agonist radioligand 20 nM [^3H] […] (iv) LXRβ (human) recombinant protein expressed in E. coli; agonist radioligand 20 nM [^3H]

M. leprae 3β-HSD [2] = assay: cholestenone production by M. leprae in axenic medium (TLC); assay type: cell-based; conditions: Mycobacterium leprae, TLC densitometry, σ printed in brackets
M. leprae [3] = assay: M. leprae viability in axenic medium by radiorespirometry; assay type: cell-based, Mycobacterium leprae
M. leprae 3β-HSD [4] = assay: NAD+ reduction by M. leprae whole cell lysate; assay type: biochemical, Mycobacterium leprae; conditions: M. leprae WCL with 200 µM cholesterol, vehicle DMSO mean 1.119
Experimental: M. leprae whole cell lysate (WCL) was obtained by bead-beating gamma-irradiated M. leprae Strain NHDP (BEI Resources, NR-19326) with 0.1 mm silica beads and FastPrep bead-beater (MP Biomedicals, USA). Homogenization was carried out in three cycles of agitation at 6.5 m/s for 45 s, with the sample being rested on ice for at least 2 min between cycles. The homogenates were centrifuged at 14,000 × g for 5 min to separate the spheres and WCL. The supernatant was recovered, and protein concentration determined using Pierce BCA protein assay (Thermo Fisher Scientific). NAD^+ (200 µM, MilliporeSigma, USA) reduction was measured as previously described using 50 µg (protein) of WCL protein, with the addition of 200 µM of cholesterol (MilliporeSigma) and in the presence or absence of compound 2 (40 and 100 µM) or compound 5 (100 µM) ([10]).

M. leprae [5] = assay: Shepard's mouse footpad model: bacilli count and molecular viability; assay type: in vivo, Mycobacterium leprae; conditions: for M. leprae molecular viability, median (16S rRNA cDNA/DNA, RT-qPCR) / M. leprae molecular viability: Balb/c mice footpad; for M. leprae molecular viability, median (16S rRNA cDNA/DNA, RT-qPCR): 50 mg/kg daily alone, 1 month; for M. leprae molecular viability: 50 mg/kg daily in combination with sub-inhibitory rifampicin 1 mg/kg; for bacillary load in footpad, median: Balb/c mice, 50 mg/kg daily by gavage alone, 1 month (20 doses), vehicle median 8.110 × 10^4
Experimental: Animal experimentation was conducted under approval by the ILSL ethical committee ([…] 02/19). Balb/c female mice with 8-week-old were inoculated with 5 × 10^3 live M. leprae bacilli, strain Thai-53, in both hind footpads, as previously described for the Shepard's model ([25]). Eight groups were tested in the experiment: (i) M. leprae control group (n = 5) inoculated with M. leprae and no additional treatment; (ii) vehicle control group (n = 4) inoculated with M. leprae and treatment with vehicle of the drugs; (iii) regular rifampicin treatment, 10 mg/Kg dose; […] (v) compound 2 treatment (n = 4), 50 mg/kg dose; […] One month after inoculation, mice from the control group were euthanized and the hind footpad was collected to assess the establishment of the infection by bacillary enumeration. At that time point, vehicle or drug treatment was started for the remaining groups. All compounds were administrated by gavage, rifampicin was administered weekly, and the compounds were administered daily (excluding weekends) for 1 month (20 doses). Mice were euthanized 6 h after administration of the last dose, and blood was collected in heparin-coated tubes by cardiac puncture for blood enzyme evaluation and compound 5 measurement by LC/MS in the plasma. The infected hind footpads from each group of mice were excised, homogenized and bacilli enumerated in a 100 μL aliquot as previously described ([26]). The remaining homogenate was centrifuged at 12,000 × g for 15 min, the supernatant was discarded, and the pellet was suspended in 750 μL of RNA later solution (Thermo Fisher Scientific). The homogenized tissue pellet was incubated at 4°C for 16 h and stored at -80°C until determination of M. leprae viability was performed by RT-qPCR ([27], [28]). […] RNA and DNA extractions were performed as previously described ([10], [27]). RNA samples were treated with the Turbo DNA-free kit (Thermo Fisher Scientific), and 1,000 ng of DNAse-treated RNA was then used to synthesize the cDNA using the GoScript kit (Promega, USA).

HepG2 cells = conditions: cited from earlier work
[6] = plasma, 5 mg/kg PO vs 1 mg/kg IV

Compound	AUCinf ([1]; 1 mg/kg IV)	Clobs (observed clearance) ([1]; 1 mg/kg IV)	AUCinf ([1]; 5 mg/kg PO, plasma)	bioavailability [1, 6]	Cmax ([1]; 5 mg/kg PO, plasma)	Tmax ([1]; 5 mg/kg PO, plasma)	half-life ([1]; 5 mg/kg PO, plasma)	Cmax ([1]; plasma, 1 mg/kg IV)	Tmax ([1]; plasma, 1 mg/kg IV)	% inhibition observed, LXRα (LXRα)	inhibition at 10 µM (LXRα)	effect on M. leprae viability (radiorespirometry) (M. leprae [3]; 100 µM)	rate of NAD+ reduction, mean value (ratio absorbance T/absorbance T0) (M. leprae 3β-HSD [4]; 100 µM)	M. leprae molecular viability, median (16S rRNA cDNA/DNA, RT-qPCR) (M. leprae [5])	M. leprae molecular viability (M. leprae [5])	bacillary load in footpad, median (M. leprae [5])	IC50 (HepG2 cells)	also measured
C[C@]12CCC3C(CNC4=CC(=O)CC[C@@]43C)C1CCC2C(=O)NC(c1ccc(F)cc1)c1ccc(F)cc1 (some centres unmarked) [Compound 5]	3,123 h·ng/g	5.34 (mL/min)/kg	18,566 h·ng/g	119%	2210 ng/mL	30 min	168 min	838 ng/mL	156 min	low binding	11%	without significantly affecting bacterial viability	0.9070	4.205%	a reduction in bacterial viability was also observed	7.890 × 10^4	31 µM	F (bioavailability) ([1]; 5 mg/kg PO vs 1 mg/kg IV): 118.9%; compound remaining in plasma after 6 h ([1]; PO administration): more than 50%; in vivo t1/2 relative to compound 1 ([1]; longer than compound 1): approximately 2.5 fold; inhibition at 100 µM (M. leprae 3β-HSD [2]; 100 μM): ~25.1%
CC(C)(C)c1ccc(C(C)(C)C)c(NC(=O)C2CCC3C4CNC5=CC(=O)CC[C@]5(C)C4CC[C@]23C)c1 (some centres unmarked) [Compound 1]	356 ng·h/g	46.8 (mL/min)/kg	822.1 ng·h/g	46.2%	501 ng/mL	30 min	60 min	803 ng/mL	38.5 min	significantly inhibit binding	53%	–	–	–	–	–	–	time by which most of the compound was cleared from plasma ([1]; PO administration): ≤ 4 h
CCCN1CC2C3CCC(C(=O)Nc4cc(C(C)(C)C)ccc4C(C)(C)C)[C@@]3(C)CCC2[C@@]2(C)CCC(=O)C=C12 (some centres unmarked) [Compound 2]	–	–	–	–	–	–	–	–	–	significantly inhibit binding	64%	drastically reduced M. leprae viability	1.038	0.5442%	a reduction in bacterial viability was also observed	7.885 × 10^4	21 µM	inhibition at 40 µM (M. leprae 3β-HSD [2]; 40 μM): ~38%; effect on M. leprae viability (radiorespirometry) (M. leprae [3]; 40 µM): did not significantly affect M. leprae viability; rate of NAD+ reduction, mean value (ratio absorbance T/absorbance T0) (M. leprae 3β-HSD [4]; 40 µM): 0.9986
